Assay [1] relates to Meth A fibrosarcoma. The assay is described as follows: Meth A fibrosarcoma tumor volume in mice (Test Example 2). Format: in vivo, BALB/c mice. The following applies: Test (2): start tumor volume 160-180 mm³; irsogladine maleate 10 mg/kg or 5-fluorouracil 30 mg/kg orally; Fig. 2. Here is the method: • (1) The homologus tumor Meth A fibrosarcoma subcultured (ascites type) in BALB/c mice, 5 x 10^5 cells, was transplanted subcutaneously at the flank of 6-week-old male BALB/c mice. Mice having a tumor volume of 70-100 mm³ were selected and divided into groups of 9. Oral single daily administration of the test compound was started and the body weight and tumor volume were serially determined. The volume was determined using the same calculation formula as shown in Test Example 1. The compound of the invention irsogladine maleate, 10 mg/kg, suspended in 0.5% methylcellulose maleate and 5-fluorouracil, 15 mg/kg, dissolved in 0.5% methylcellulose solution were respectively administered orally. The control group received 0.5% methylcellulose solution orally. […] The effect of the com pound of this invention as an anticancer agent is, thus, clear. • (2) As in the above test, mice having a tumor volume of 160-180 mm³ were selected and subjected to the same test as above. The compound of this invention irsogladine maleate, 10 mg/kg, 5-flurorouracil, 30 mg/kg, or as a combination therapy, irsogladine maleate, 10 mg/kg, plus 5-fluorouracil, 30 mg/kg, were administered orally. The control group received the same control material as in the above test orally. […] The anticancer adjuvant activity of the compound of this invention to 5-FU is clear.
The open circle stands for control, the open triangle for 5-FU and the closed circle for the compound of the invention. The tumor volume (mm³) is plotted on the vertical axis and the number of days after drug administration on the horizontal axis.
The open circle stands for control, the open triangle for F-5U, the closed circle for the compound of the invention, the open square for the combination therapy. The tumor volume (mm³) is plotted on the vertical axis and the number of days after drug administration on the horizontal axis.

Assay [2] relates to Colon 26 tumor cells. Put plainly: Colon 26 life-prolonging effect / survival (Test Example 5). Format: in vivo, BALB/c mice. The following applies: 10 mg/kg orally once daily; for life-prolonging effect: Test (2): groups of six, eighty percent of control group died on day 63, Fig. 4. Here is the method:
Furthermore, in the assay of growth inhibitory activity against Colon 26, the life-prolonging effect can be evaluated from the mortality of animals during a period of 4 to 6 weeks after administration.
• (1) Colon 26 tumor cells were transplanted subcutane ously in groups of six BALB/c mice and the treatment was instituted when the tumor volume amounted to about 100 - 200 mm³. The test drug suspended in 0.5% methyl cellulose was administered orally in a dose of 10 mg/kg once daily during the test period. All animals in the control group (no test drug was contained at all) died on day 34 and all animals given 5-FU derivative died on day 40, whereas none of the animals given the compound of this invention (compound No. 169) died even after day 40. The life-prolonging effect of the compound of this invention is clear. • (2) As in the above (1), Colon 26 tumor cells were transplanted subcutaneously in groups of six BALB/c mice and treatment was instituted when the tumor volume amounted to about 100-200 mm³. The test drug suspended in 0.5% methylcellulose was administered orally in a dose of 10 mg/kg once daily during the test period.
The open circle stands for control, the open square for the F-5U derivative group and the closed square for the group given the compound of this invention. The survival rate (%) is plotted on the vertical axis and the number of days after drug administration on the horizontal axis.
The open circle stands for the control group, the open square for Compound No. 175 group, the closed circle for Compound No. 210 group, the open triangle for Compound No. 213 group and the closed square for Compound 219 group. The survival rate (%) is plotted on the vertical axis and the number of days after drug administration on the horizontal axis.

Assay [3] relates to Colon 26 tumor cells. The assay is described as follows: Colon 26 percent tumor inhibition, alone and combined with 5-FU derivatives (Test Example 3). Format: in vivo, BALB/c mice. The following applies: for % Inhibition, Combination: test compound 10 mg/kg orally once daily concurrently with 5-FU derivatives (90 mg/kg total); for % Inhibition, Single drug: test compound 10 mg/kg orally once daily, 5-FU derivatives 30 mg/kg each (90 mg/kg total) orally. The protocol: The additive effect of 5-FU derivative and the compound of this invention was tested in terms of percent tumor inhibition. Colon 26 tumor cells were transplanted subcutaneously to groups of 8 BALB/c mice and the treatment was instituted when the tumor volume amounted to about 50-100 mm³. Each of the test com pound was suspended in 0.5% methylcellulose and admin istered orally in a dose of 10 mg/kg once daily for 14 days in (1) and for 21 days in (2) and (3). As 5-FU derivatives Mifurol™, Furtulon™ and Sunfural™ were used, and all the drugs were administered orally in a dose of 30mg/kg, or 90 mg/kg as total dose of three drugs. The combination group received these 5-FU derivatives concurrently with the test drug. The single drug group received each test compound alone orally.

The subject of assay [4] is MDCK cells. Put plainly: Inhibition of uptake of 5-FU in MDCK cells (Test Example 4). Format: cell-based. The following applies: Canis lupus familiaris, 3H-5FU uptake versus control, harvest time (1, 3 or 5 hours) not given. The protocol:
In the assay of inhibitory activity against the 5-FU uptake of MDCK cells, the anticancer adjuvant activity of the test compound can be estimated based on the inhibitory effect on the uptake of a known anticancer drug.
The inhibitory effect of the compound of this invention on the uptake of 5-FU in MDCK cells was investigated. MDCK cells were seeded on a 24-well culture plate. When the cells became confluent, the test compound (10⁻⁶ - 10⁻⁴ M) and 3H-5FU ([…]) were simultaneously added to the medium and 1, 3 and 5 hours later, cells were harvested to determine the amount of 3H-5FU taken up with a liquid scintillation counter. The percent inhibition to control was calculated.

For assay [5], the system named is WiDr (human colon cancer). Put plainly: Tumor growth inhibition, WiDr implant in nude mice (Test Example 1). The format is in vivo, BALB/c nude mice. The following applies: implant volume on day 18 after transplantation divided by volume at transplantation; irsogladine maleate 10 mg/kg orally once daily from day 14; cyclophosphamide 150 mg/kg intraperitoneally once on day 14; groups of 10. Here is the method: WiDr (human colon cancer) cells subcultured in BALB/c nude mice were dissected to prepare cubes, about 2 mm³ each. These cubes were transplanted subaxillarily into separate BALB/c nude mice using a transplantation needle. The animals were divided into groups of 10 individuals on day 10 after transplantation and the body weight and the diameter of the implant were serially determined. As the compound of this invention, irsogladine maleate, 10 mg/kg, was suspended in 0.5% methylcellulose solution and administered orally once daily beginning day 14 after transplantation. Cyclophosphamide, 150 mg/kg, was dissolved in PBS and administered intraperitoneally once on day 14 after transplantation. The control group received 0.5% methylcellulose solution orally once daily beginning day 14 after transplantation.
The volume of the implant on day 18 after transplantation was divided by the volume at trans plantation. […]
The effect of the compound of this invention as an anticancer agent is clear.

Structures are written as SMILES.

Turning to `O=c1[nH]cc(F)c(=O)[nH]1` [5-FU, 5-fluorouracil, reference compound], the “tumor-inhibitory effect, single drug” value in assay [1] is reported as “tumor-inhibitory effect”.

On to `Nc1nc(N)nc(-c2cc(Cl)ccc2Cl)n1` [Compound No. 169, 2,4-Diamino-6-(2,5-dichlorophenyl)-1,3,5-triazine], for which the “survival: day on which the animals died” value in assay [2] (Test (1): groups of six, control group all died on day 34, Fig. 3) was > 40 days. The “% Inhibition, Combination” value in assay [3] (Test (1): 14 days) is given as 54.6%; in assay [3] (Test (2): 21 days) it was 84.1%; in assay [3] (Test (3): 21 days), 49.9%. Moreover, the “% Inhibition, Single drug” value in assay [3] (Test (1): 14 days) was determined as 18.0%; in assay [3] (Test (2): 21 days) it was 11.6%; in assay [3] (Test (3): 21 days) it was 10.7%.

In the case of `Nc1nc(N)nc(-c2ccc(Cl)cc2Br)n1` [Compound No. 210, 2,4-Diamino-6-(2-bromo-4-chlorophenyl)-1,3,5-triazine], the life-prolonging effect result in assay [2] is listed as “definite life-prolonging effect”. Further, the “% Inhibition, Combination” value in assay [3] (Test (2): 21 days) was 86.0%.

With `Nc1nc(N)nc(-c2cc(Br)ccc2Cl)n1` [Compound No. 213, 2,4-Diamino-6-(5-bromo-2-chlorophenyl)-1,3,5-triazine], in assay [2], the life-prolonging effect result is recorded as “definite life-prolonging effect”. Further, the “% Inhibition, Combination” value in assay [3] (Test (2): 21 days) came out at 70.4%.

Broadly, the inhibition is the change of the read-out against control, counted positive when it falls. The low end stands for a response near the control, the high end for a response far below the control. Consider `Nc1nc(N)nc(-c2ccc(Br)c(Cl)c2)n1` [Compound No. 219, 2,4-Diamino-6-(4-bromo-3-chlorophenyl)-1,3,5-triazine], for which the inhibition at 100 µM in assay [4] (10⁻⁴ M) came to 60%. In addition, in assay [4] (10⁻⁵ M), the inhibition at 10 µM was 69%. For the same compound, in assay [4] (10⁻⁶ M), testing at 1 µM gave an inhibition of 86%. In addition, the life-prolonging effect entry in assay [2] is “definite life-prolonging effect”. For the same compound, in assay [3] (Test (2): 21 days), the “% Inhibition, Combination” value is reported as 75.5% and the “% Inhibition, Single drug” value turned out to be 10.0%.

Take `O=P1(N(CCCl)CCCl)NCCCO1` (stereo not shown) [Cyclophosphamide, reference compound]: the Tumor volume ratio in assay [5] is given as 1.52 ± 0.06.

Source of the values: EP0563386A1, “ANTICANCER COMPOSITION AND COMPOUND” (NIPPON SHINYAKU COMPANY, LIMITED, priority 1990, dated 1992).
